B1: ikzf1-006: Ikaros variant lacking exon 7, overexpressed as fused Ikzf1:EGFP protein in zebrafish embryos (nucleic acid)
DNA: ATGGAGACTGAGGAGGCACAGGAAATGTCCCAGATAACAGGAAGAGACAGCCCGATGAATGCTAATGAAGGCGGAGAGGATCAAGATGAGGCCATGCCTGTTCCTGAAGACTTGTCAGCAAGCACTGGCCTCCAACACAACAATCGCACAGATAAACCACTGGCCTGTAATATAAAAGTTGAGGCTCGGAGTGACGAGGAAAACGGTCTGTCCTGTGAGATGAATGGAGAGGCAGAGGAATGTGCAGCTGAGGACTTGCGCATACTCGATGGCTCTGGGGCCAAAGTGAACGGCTCCCACGCAGGCCCCGACAGCAAGCCGGCCGCCTACCCCACAGCCGGGGGCATCCGCCTCCCCAACGGGAAGCTGAAGTGCGATATCTGTGGGATAGTTTGCATTGGGCCCAATGTGTTGATGGTTCACAAGCGAAGTCACACTGAAGAAAGAAAGTCAGTTTTGGAACAACAAAAAGGTGAAAGGCCATTCCAGTGCAATCAATGTGGTGCTTCATTCACTCAGAAGGGTAACCTGCTCCGACACATCAAACTTCACTCTGGCGAGAAACCTTTCAAATGTCACCTGTGCAACTATGCTTGCCGCCGCAGAGACGCTCTCACTGGACATCTGCGCACTCATTCGGTTGGAAAGCCCCATAAGTGTGCATATTGCGGACGCAGTTACAAGCAGCGGAGCTCACTGGAGGAACATAAGGAGAGATGTCACAACTACTTGCAGTGCATGGGCCTTCAGAACAGCATTTATACAGGAGAGAATCGTCTGTCAGAGCTATCTTTCGAGAGTGGCTCANGTGAGCTGATGCAGCCCCATGTGATTGATCAGGCCATCAACAGTGCAATTAGCTATCTGGGTGCAGAGTCCTTGCGGCCTCTGGTTCAGACCTCTCCTGGGTCCGCCGACATGGTGGTCAGCCCTCTATACAACCTGCACAAGTCACAAACAGCTGAAGGCAATGGTGTTTCTGCTAAAGACAGCGCCGCAGAGCACCTTCTCCTACTCTCTAAGTCCAAATCCGCCTCTGTTGACAAAGACGGTTCCCCCAGTCCCAGCGGGCAGGATTCCACTGACACTGAGAGCAACAACGAGGAGCGTTCGGCCGGGGTAAGCGGAACAGCAGCCACAGGTGGTCTCATCTACCTGACCAACCACATGGCTCCAGGTATGAGAAATGGAGGCCTGCCAGGGGTAAAGGAAGAACAACACCGGCAGTTTGAGGCTTTGCGAGCAGCAGGAATGGATTTGAGTATAGCGTCATCAGAAGGATTTAAGGTGCTAAGTGGAGATGGAGAAGAATTGAGGGCGTACCGCTGTATCCACTGCAGAGTTTTGTTCCTGGATCATGTCATGTACACCATCCACATGGGCTGTCATGGCTTCCGAGACCCCTTTGAGTGCAACCTATGCGGGTACCGCAGTCAGGACCGTTATGAGTTCTCATCGCACATCACACGTGGAGAGCACCGCATCTGA
modifications: fused to EGFP; nucleotide sequence of ikzf1-006 Ikaros variant; 808 n = A,T,C or G
notes: Ikaros variant lacking exon 7, overexpressed as fused Ikzf1:EGFP protein in zebrafish embryos

Tested on: zebrafish embryos
Test: Brain size, morphology and volume of zebrafish embryos (microscopy, MRI)
Assay type: in vivo
Procedure: An aqueous solution of a 25-mer antisense morpholino oligonucleotide (AMO, Gene Tools, LLC) corresponding to the vicinity of the translation initiation codon in the cDNA sequence of the gene to be knocked down ([…] injection conditions were the same as those used for RNA) was injected into the embryos at the 1-cell stage. The sequence of AMO used for the CRBN gene knockdown is 5′-[…]-3′ (SEQ ID NO: 3). The sequence of AMO used for the Lhx2 gene knockdown is 5′-[…]-3′ (SEQ ID NO:4). The sequence of AMO used for the BRD7 gene knockdown is 5′-[…]-3′ (SEQ ID NO:1). The sequence of AMO used for the Ikaros gene knockdown is 5′-[…]-3′ (SEQ ID NO:2). […]
In order to examine the effect of antagonists of BRD7 on brain growth, BRD7 was knocked down or over-expressed in zebrafish embryos. Knockdown of BRD7 was performed by microinjection of antisense morpholino oligonucleotides (AMO). Overexpression of BRD7 was performed by microinjection of synthesized capped mRNA. AMO or capped mRNA was introduced into one-cell stage embryos by using a nitrogen gas-pressure microinjector IM 300 (Narishige). Conditions for microinjection were as follows: gas pressure was about 15 picosiemens; release period was about 30 to about 50 milliseconds per single injection; concentrations of AMOs and capped mRNA were 400 ng/μl and 250 ng/μl in nuclease-free water, respectively. Capped mRNAs were synthesized in vitro using the mMESSAGE mMachine® in vitro transcription kit (Ambion) from cDNAs cloned into pCS2+ plasmids.
The brains of the embryos were examined for morphology and volume by magnetic resonance imaging (MRI). FIGS. 9A, 9B, and 9C show microscopic pictures of the untreated, the BRD7-knockdown, and the BRD7-overexpressing zebrafish embryos, respectively. FIGS. 9D, 9E, and 9F show fluorescent microscopic pictures of the brain regions of the untreated, the BRD7-knockdown, and the BRD7-overexpressing zebrafish embryos, respectively. As shown in these figures, the BRD7-knockdown zebrafish embryos had bigger heads than the untreated embryos. […] The volume of the whole brain of the BRD7-knockdown fish was much bigger than that of the untreated fish, while for the BRD7-overexpressing fish, the brain volume was smaller.
In order to examine the effect of antagonists of Ikaros on brain growth, Ikaros was knocked down or over-expressed in zebrafish embryos. Knockdown of Ikaros was performed by microinjection of antisense morpholino oligonucleotides (AMO). Overexpression of Ikaros was performed by injection of synthesized capped mRNA. AMO or capped mRNA was introduced into one-cell stage embryos by using a nitrogen gas-pressure microinjector IM 300 (Narishige). Conditions for microinjection were as follows: gas pressure was about 15 picosiemens; release period was about 30 to about 50 milliseconds per single injection; concentrations of AMOs and capped mRNA were 400 ng/μl and 250 ng/μl in nuclease-free water, respectively. Capped mRNAs were synthesized in vitro using the mMESSAGE mMachine® in vitro transcription kit (Ambion) from cDNAs cloned into pCS2+ plasmids.
The brains of the embryos were examined for morphology and volume by magnetic resonance imaging (MRI). FIGS. 15A, 15B, and 15C show microscopic pictures of untreated, Ikaros-knockdown, and Ikaros-overexpressing zebrafish embryos at 55 hpf, respectively. As shown in these figures, the Ikaros-knockdown fish had bigger heads than the untreated embryos. […] The volume of the whole brain of the Ikaros-knockdown fish was much bigger than that of the untreated fish, while for the Ikaros-overexpressing fish, the brain volume was smaller.

Molecule | brain size compared to the normal embryo (FIG. 1) | brain development (22 hpf)
5′-TCTGCAACCCAAGATTTCCGTGAGA-3′ (all phosphorodiamidate morpholino (PMO)) [lhx2 gene-knockdown, 25-mer antisense morpholino oligonucleotide (AMO) used for the Lhx2 gene knockdown, reference compound] | brain shrinkage | 
B1 |  | reduction of brain development
